# Laboratory results taken from article PMC4472604 (ACS chemical neuroscience, 2015).
# Legend:
# DOR [1] = molecular target: T1, DOR (Mus musculus, UniProt P32300); test: Competition binding against [125I]-3
# DOR [2] = molecular target: T1, DOR; test: [125I]-3 saturation binding in DOR-CHO membranes; settings: mean ± SEM
# KOR = KOR (Mus musculus, UniProt P33534); test: Competition binding against [125I]BNtxA in KOR-CHO membranes
# 6TM/E11 sites = 6TM/E11 sites (Mus musculus, UniProt P42866); format: binding
# MOR = MOR (Mus musculus, UniProt P42866); test: Competition binding against [125I]BNtxA in MOR-CHO membranes
compound,measurement,setting,value
Oc1ccc2c3c1O[C@H]1c4oc5ccccc5c4C[C@@]4(O)[C@@H](C2)N(CC2CC2)CC[C@]314 [Naltriben],Ki,DOR [1],0.14 ± 0.04 nM
Oc1ccc2c3c1O[C@H]1c4[nH]c5ccccc5c4C[C@@]4(O)[C@@H](C2)N(CC2CC2)CC[C@]314 [Naltrindole],Ki,DOR [1],0.79 ± 0.16 nM
Tyr-D-Ala-(p-^125I)Phe-Glu-Ile-Ile-Gly-NH2 [[^125I]-3],Bmax,DOR [2],196.97 ± 12.44 fmol/mg
"CC(C)[C@H](NC(=O)[C@H](CCC(=O)O)NC(=O)[C@H](Cc1ccccc1)NC(=O)[C@@H](C)NC(=O)[C@@H](N)Cc1ccc(O)cc1)C(=O)N[C@H](C(=O)NCC(N)=O)C(C)C [[D-Ala^2]deltorphin II, Tyr-D-Ala-Phe-Glu-Val-Val-Gly-NH2]",Ki,KOR,> 1000 nM
same,Ki,6TM/E11 sites,> 1000 nM
same,Ki,MOR,> 1000 nM
